Activity data for 49 compounds are collected here from ChEMBL document CHEMBL1240317, “Probing cell-division phenotype space and Polo-like kinase function using small molecules” (Nat Chem Biol, 2006).

Structures are written as SMILES. The source made the active and inactive calls. How the calls were made is not given here.

Common to all, as to type: functional, cell-based
Conditions in all cases: Chlorocebus aethiops

Experiment [1] concerns BSC-1. Description: Induction of severe microtubule disruption in african green monkey BSC1 cells at 20 uM after 4 hrs by immunocytochemistry.
In experiment [2] the test system is BSC-1. Description: Induction of reduced mitotic index in african green monkey BSC1 cells at 20 uM after 4 hrs by immunocytochemistry.
Experiment [3] deals with BSC-1. Description: Induction of deffects in mitotic spindle in african green monkey BSC1 cells at 20 uM after 4 hrs by immunocytochemistry.

Turning to `CC(=O)Nc1ccc(Nc2ccnc(NCc3cccs3)n2)cc1`, the outcome in the experiment with BSC-1 [1], with BSC-1 [2] and in the experiment on BSC-1 [3] was Active.
In the case of `CC(=O)Nc1ccc(Nc2ccnc(Nc3ccc4ccccc4c3)n2)cc1`, the result in the experiment on BSC-1 [1] was Active.
Regarding `CC(C)(C)c1ccc(Nc2ncc([N+](=O)[O-])c(Sc3cccc(Cl)c3)n2)cc1`, the outcome with BSC-1 [1], in the experiment with BSC-1 [2] and with BSC-1 [3] was Active.
As to `OCC1CCCN1c1nccc(Nc2ccc3c(c2)OCO3)n1` (stereo not given), the outcome with BSC-1 [1], in the experiment on BSC-1 [2] and in the experiment with BSC-1 [3] was Active.
For the compound `O=[N+]([O-])c1cnc(-n2ccnc2-c2ccccc2)nc1NC1CCCC1`, the outcome in the experiment on BSC-1 [1], in the experiment on BSC-1 [2] and in the experiment on BSC-1 [3] was Active.
Consider `COc1cc(Nc2ncc([N+](=O)[O-])c(Nc3ccccc3C(N)=O)n2)cc(OC)c1OC`, for which, in the experiment on BSC-1 [1], the result was Active.
As for `c1ccc2cc(Nc3nccc(Nc4ccc5c(c4)OCO5)n3)ccc2c1`, the result in the experiment with BSC-1 [1], in the experiment on BSC-1 [2] and in the experiment with BSC-1 [3] was Active.
On to `CCCCNc1nc(Nc2ccc(NC(C)=O)cc2)ncc1[N+](=O)[O-]`, for which the result with BSC-1 [3] was Active.
Same read-out and setting: for `CC(=O)Nc1ccc(Nc2ncc([N+](=O)[O-])c(Nc3ccccc3C(N)=O)n2)cc1` the value was “Active”.
For `CN1CCN(c2ccc(Nc3ncc([N+](=O)[O-])c(Nc4ccc(Cl)c(Cl)c4)n3)cc2)CC1`, the result with BSC-1 [1], with BSC-1 [2] and in the experiment on BSC-1 [3] was Active.
In the case of `O=[N+]([O-])c1cnc(NC2CCCC2)nc1Nc1ccc2ncsc2c1`, the outcome with BSC-1 [1], in the experiment with BSC-1 [2] and in the experiment with BSC-1 [3] was Active.
With `CC(=O)Nc1ccc(Nc2ncc([N+](=O)[O-])c(Nc3ccc(Cl)c(Cl)c3)n2)cc1`, the result in the experiment with BSC-1 [1], with BSC-1 [2] and in the experiment on BSC-1 [3] was Active.
In the case of `CC(C)(C)c1ccc(Nc2ncc([N+](=O)[O-])c(NC3CCCC3)n2)cc1`, the outcome in the experiment with BSC-1 [1], with BSC-1 [2] and in the experiment on BSC-1 [3] was Active.
As for `O=[N+]([O-])c1cnc(Nc2ccc3[nH]ccc3c2)nc1NC1CCCC1`, the result with BSC-1 [1], in the experiment on BSC-1 [2] and in the experiment on BSC-1 [3] was Active.
As to `O=[N+]([O-])c1cnc(Nc2ccc3c(c2)CCC3)nc1Nc1ccc(Cl)c(Cl)c1`, the result with BSC-1 [1], in the experiment on BSC-1 [2] and in the experiment on BSC-1 [3] was Active.
In the case of `CN1CCN(c2ccnc(Sc3cccc(Cl)c3)n2)CC1`, the result with BSC-1 [3] was Active.
In the case of `CCN(CC)CCCC(C)Nc1ncc([N+](=O)[O-])c(NC2CCCC2)n1` (stereo not given), the result in the experiment on BSC-1 [1], in the experiment on BSC-1 [2] and in the experiment on BSC-1 [3] was Active.
`CC(C)(Nc1ncc([N+](=O)[O-])c(Nc2ccc3ncsc3c2)n1)c1ccccc1`: the outcome in the experiment on BSC-1 [1], with BSC-1 [2] and in the experiment with BSC-1 [3] was Active.
As for `NC(=O)c1ccccc1Nc1nc(NCCCN2CCCC2=O)ncc1[N+](=O)[O-]`, the result in the experiment with BSC-1 [1], in the experiment on BSC-1 [2] and with BSC-1 [3] was Active.
For `c1ccc(-c2nccn2-c2ccnc(Nc3ccc4ncsc4c3)n2)cc1`, the result with BSC-1 [1] was Active.
With `CC(=O)Nc1ccc(Nc2ccnc(Nc3ccncc3)n2)cc1`, the outcome in the experiment on BSC-1 [1], in the experiment with BSC-1 [2] and in the experiment on BSC-1 [3] was Active.
Turning to `OCC(Cc1ccccc1)Nc1nccc(Nc2ccc3c(c2)OCO3)n1` (stereo not given), the result in the experiment with BSC-1 [1], in the experiment on BSC-1 [2] and with BSC-1 [3] was Active.
`NC(=O)c1ccccc1Nc1nc(NC2CCCCCC2)ncc1[N+](=O)[O-]`: the result with BSC-1 [1], in the experiment on BSC-1 [2] and with BSC-1 [3] was Active.
As for `CC(C)(C)c1ccc(Nc2ncc([N+](=O)[O-])c(Nc3ccccc3C(N)=O)n2)cc1`, in the experiment with BSC-1 [1], the outcome was Active.
Turning to `O=[N+]([O-])c1cnc(-n2ccnc2-c2ccccc2)nc1Nc1ccc2ncsc2c1`, in the experiment with BSC-1 [3], the result was Active.
Regarding `O=[N+]([O-])c1cnc(NC2CCCC2)nc1Nc1ccc2[nH]ccc2c1`, the result with BSC-1 [1], in the experiment on BSC-1 [2] and in the experiment on BSC-1 [3] was Active.
Regarding `O=C(c1ccccc1)c1ccccc1Nc1nc(NC(CO)Cc2ccccc2)ncc1[N+](=O)[O-]` (stereo not given), the result in the experiment with BSC-1 [3] was Active.
Take `CC(C)(Nc1ncc([N+](=O)[O-])c(Nc2ccccc2C(N)=O)n1)c1ccccc1`: in the experiment with BSC-1 [1], the outcome was Active.
In the case of `CN1CCN(c2ccc(Nc3ncc([N+](=O)[O-])c(Nc4ccccc4C(N)=O)n3)cc2)CC1`, the result in the experiment on BSC-1 [1] was Active.
For the compound `O=[N+]([O-])c1cnc(Nc2ccc3[nH]ccc3c2)nc1Nc1ccc2ncsc2c1`, in the experiment with BSC-1 [3], the outcome was Active.
On the same count and under the same terms, then `O=[N+]([O-])c1cnc(Cl)nc1NC1CCCC1`, with “Active”.
Take `CC(=O)Nc1ccc(Nc2ccnc(Nc3ccc(C(C)(C)C)cc3)n2)cc1`: the outcome with BSC-1 [1] was Active.
On the same count and under the same terms, for `COc1cc(Nc2ncc([N+](=O)[O-])c(Nc3ccc4c(c3)OCO4)n2)cc(OC)c1OC` the value was “Active”.
Take `Clc1ccc(Nc2nccc(Nc3ccc4c(c3)CCC4)n2)cc1Cl`: the outcome in the experiment with BSC-1 [3] was Active.
Turning to `O=[N+]([O-])c1cnc(Nc2ccncc2)nc1NC1CCCC1`, in the experiment with BSC-1 [1], the outcome was Active.
Turning to `O=C(c1ccccc1)c1ccccc1Nc1nc(NCc2cccs2)ncc1[N+](=O)[O-]`, the result in the experiment with BSC-1 [2] was Active.
As for `CC(C)(C)c1ccc(Nc2ncc([N+](=O)[O-])c(Nc3ccc4ncsc4c3)n2)cc1`, in the experiment with BSC-1 [3], the result was Active.
For `c1cc(Nc2ccc3c(c2)OCO3)nc(Nc2ccc3ncsc3c2)n1`, the result in the experiment on BSC-1 [1] was Active.
Consider `CC(=O)Nc1ccc(Nc2ncc([N+](=O)[O-])c(NC3CCCC3)n2)cc1`, for which the outcome in the experiment with BSC-1 [2] was Active.
Regarding `O=C(c1ccccc1)c1ccccc1Nc1nc(NCCCN2CCCC2=O)ncc1[N+](=O)[O-]`, the result in the experiment with BSC-1 [3] was Active.
`O=[N+]([O-])c1cnc(Nc2cccc3ncccc23)nc1Nc1ccc2ncsc2c1`: the outcome in the experiment with BSC-1 [1] was Active.
With `Cc1cc(Nc2cc(C3CC3)[nH]n2)nc(Nc2ccc(CC#N)cc2)n1`, in the experiment on BSC-1 [1], the result was Active.
For `O=[N+]([O-])c1cnc(Nc2ccc(Cl)c(Cl)c2)nc1Nc1ccc2ncsc2c1`, the result in the experiment on BSC-1 [3] was Active.
With `CC(=O)Nc1ccc(Nc2ccnc(Nc3ccc4ncsc4c3)n2)cc1`, in the experiment on BSC-1 [1], the result was Active.
For `COc1ccc(Nc2ncc([N+](=O)[O-])c(Nc3ccc4[nH]ccc4c3)n2)cc1`, the result with BSC-1 [1] was Active.
For `O=[N+]([O-])c1cnc(Nc2ccc3ccccc3c2)nc1Nc1ccc2ncsc2c1`, the outcome in the experiment with BSC-1 [3] was Active.
Same read-out and setting: for `CC(C)(C)c1ccc(Nc2nccc(-n3ccnc3-c3ccccc3)n2)cc1` the value was “Active”.
With `CC(=O)Nc1ccc(Nc2nccc(Nc3ccc4[nH]ccc4c3)n2)cc1`, the outcome in the experiment on BSC-1 [1] was Active.
Still for that read-out and setting: then `CC(=O)Nc1ccc(Nc2ccnc(Nc3ccc(Cl)cc3Cl)n2)cc1`, with “Active”.
